Patent publication US20180368410A1, “MICROBIOCIDAL OXADIAZOLE DERIVATIVES” (SYNGENTA PARTICIPATIONS AG, priority 2015, published 2018)

Assays:
[1] = tested on: Puccinia recondita f. Sp. Tritici; experiment: Puccinia recondita f. sp. tritici / wheat / leaf disc preventative (brown rust); type: in vivo, Puccinia recondita f. sp. tritici on wheat cv. Kanzler; conditions: foliar, 200 ppm in the applied formulation, inoculated 1 day after application, assessed 7 to 9 days after application, vs untreated control leaf disks, read-out: disease control
Outline: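 Wheat cv. Kanzler leaf segments on agar were sprayed with compound (DMSO stock diluted with 0.025% Tween20) 1 day before inoculation with spores. Segments were held at 19 °C, 75% rh, 12 h light/dark. Percent disease control versus untreated was scored 7–9 days after application.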

[2] = tested on: Puccinia recondita f. Sp. Triticil; experiment: Puccinia recondita f. sp. tritici / wheat / leaf disc curative (brown rust); type: in vivo, Puccinia recondita f. sp. tritici on wheat cv. Kanzler; conditions: foliar, 200 ppm in the applied formulation, applied 1 day after inoculation, assessed 6 to 8 days after application, vs untreated control leaf disks, read-out: disease control
Outline: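 Curative leaf-segment test, cv. Kanzler: spore inoculation, dark storage 19° C/75% RH, compound spray 1 day post-inoculation. Then 12 h light/12 h dark, 19° C, 75% RH. Read-out: % disease control vs untreated check, 6–8 d after application.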

Phakopsora pachyrhizi = Phakopsora pachyrhizi / soybean / leaf disc preventative (Asian soybean rust); type: in vivo, Phakopsora pachyrhizi on soybean; conditions: foliar, 200 ppm in the applied formulation, inoculated one day after application, assessed 12 to 14 days after application, vs untreated control leaf disks, read-out: disease control
Outline: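 Read-out is percent disease control relative to untreated check discs, assessed once untreated discs show adequate disease, 12 to 14 days after application. Compounds, tested at 200 ppm in the applied formulation, are sprayed onto soybean leaf discs one day before inoculation with a spore suspension.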

[3] = tested on: Glomerella Lacenarium (Colletotrichum lacenarium); experiment: Glomerella lagenarium (Colletotrichum lagenarium) liquid culture / cucumber / preventative (anthracnose); type: cell-based; conditions: 20 ppm in the applied formulation, liquid culture in PDB, 24° C., inhibition of growth measured photometrically 3 to 4 days after application, vs untreated control, read-out: disease control
Outline: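 PDB broth seeded with cryo-stored conidia, added onto compound (DMSO solution) in 96-well plates; 24° C.; photometric growth read at 3–4 d post-application; % inhibition vs untreated check.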

Uromyces viciae-Fabael = experiment: Uromyces viciae-fabae / field bean / leaf disc preventative (faba-bean rust); type: in vivo, Uromyces viciae-fabae on field bean; conditions: foliar, 288 h, 100 ppm in the applied formulation, inoculated two hours after application, assessed 12 days after application, vs untreated control leaf discs, read-out: disease control
Description: Leaf disks or leaf segments of various plant species are cut from plants grown in a greenhouse. The cut leaf disks or segments are placed in multiwell plates (24-well format) onto water agar. The leaf disks are sprayed with a test solution before (preventative) or after (curative) inoculation. Compounds to be tested are prepared as DMSO solutions (max. 10 mg/ml) which are diluted to the appropriate concentration with 0.025% Tween20 just before spraying. The inoculated leaf disks or segments are incubated under defined conditions (temperature, relative humidity, light, etc.) according to the respective test system. A single evaluation of disease level is carried out 3 to 14 days after inoculation, depending on the pathosystem. Percent disease control relative to the untreated check leaf disks or segments is then calculated.
Field bean leaf discs are placed on water agar in multiwell plates (96-well format) and 10 μl of the formulated test compound diluted in acetone and a spreader pipetted onto the leaf disc. Two hours after application leaf discs are inoculated by spraying a spore suspension on the lower leaf surface. The leaf discs are incubated in a climate cabinet at 22° C. with 18 hour day and 70% relative humidity. The activity of a compound is assessed as percent disease control compared to untreated when an appropriate level of disease damage appears in untreated check leaf disks (12 days after application).
The following compounds at 100 ppm in the applied formulation give at least 80% disease control in this test when compared to untreated control leaf discs under the same conditions, which show extensive disease development.

For `CC1=NOC(C(=O)NCc2ccc(-c3noc(C(F)(F)F)n3)c(F)c2)C1` (stereo not shown) [Compound 1.60, N-[[3-fluoro-4-[5-(trifluoromethyl)-1,2,4-oxadiazol-3-yl]phenyl]methyl]-3-methyl-4,5-dihydroisoxazole-5-carboxamide], the pest or weed control at 200 ppm [1] was ≥ 80%, the pest or weed control at 200 ppm [2] was ≥ 80% and the pest or weed control at 200 ppm (Phakopsora pachyrhizi) was ≥ 80%. The inhibition of growth at 20 ppm [3] was ≥ 80% and the melting point was 134 to 138 °C.

In the case of `O=C(NCc1ccc(-c2noc(C(F)(F)F)n2)cc1)c1ccccc1Cl` [Compound 1.3, 2-chloro-N-[[4-[5-(trifluoromethyl)-1,2,4-oxadiazol-3-yl]phenyl]methyl]benzamide], the pest or weed control at 200 ppm [1] is reported as ≥ 80%, the pest or weed control at 200 ppm (Phakopsora pachyrhizi) is reported as ≥ 80% and the inhibition of growth at 20 ppm [3] is reported as ≥ 80%. For the same compound, the pest or weed control at 100 ppm (Uromyces viciae-Fabael) was ≥ 80% and the melting point was 136 to 142 °C.

With `O=C(NCc1ccc(-c2noc(C(F)(F)F)n2)cc1)C1CC1` [Compound 1.1, N-[[4-[5-(trifluoromethyl)-1,2,4-oxadiazol-3-yl]phenyl]methyl] cyclopropanecarboxamide] the pest or weed control at 200 ppm [1] was ≥ 80%, the pest or weed control at 200 ppm [2] was ≥ 80% and the pest or weed control at 200 ppm (Phakopsora pachyrhizi) was ≥ 80%. The inhibition of growth at 20 ppm [3] was ≥ 80%, the pest or weed control at 100 ppm (Uromyces viciae-Fabael) was ≥ 80% and the melting point was 183 to 190 °C.

In the case of `O=C(NCc1ccc(-c2noc(C(F)(F)F)n2)c(F)c1F)C1CC1` [Compound 1.55, N-[[2,3-difluoro-4-[5-(trifluoromethyl)-1,2,4-oxadiazol-3-yl]phenyl]methyl] cyclopropanecarboxamide], the pest or weed control at 200 ppm [1] is reported as ≥ 80%, the pest or weed control at 200 ppm [2] is reported as ≥ 80% and the pest or weed control at 200 ppm (Phakopsora pachyrhizi) is reported as ≥ 80%. The inhibition of growth at 20 ppm [3] was ≥ 80% and the melting point was 144 to 150 °C.

With `Cc1occc1C(=O)NCc1ccc(-c2noc(C(F)(F)F)n2)cc1` [Compound 1.4, 2-methyl-N-[[4-[5-(trifluoromethyl)-1,2,4-oxadiazol-3-yl]phenyl]methyl]furan-3-carboxamide] the pest or weed control at 200 ppm [1] was ≥ 80%, the pest or weed control at 200 ppm [2] was ≥ 80% and the pest or weed control at 200 ppm (Phakopsora pachyrhizi) was ≥ 80%. The inhibition of growth at 20 ppm [3] was ≥ 80%, the pest or weed control at 100 ppm (Uromyces viciae-Fabael) was ≥ 80% and the melting point was 102 to 112 °C.

With `O=C(NCc1ccc(-c2noc(C(F)(F)F)n2)c(F)c1F)C1CCCO1` (stereo not shown) [Compound 1.80, N-[[2,3-difluoro-4-[5-(trifluoromethyl)-1,2,4-oxadiazol-3-yl]phenyl]methyl] tetrahydrofuran-2-carboxamide] the pest or weed control at 200 ppm [1] was ≥ 80%, the pest or weed control at 200 ppm [2] was ≥ 80% and the pest or weed control at 200 ppm (Phakopsora pachyrhizi) was ≥ 80%. For the same compound, the inhibition of growth at 20 ppm [3] was ≥ 80% and the melting point was 80 to 86 °C.

In the case of `O=C(NCCc1ccc(-c2noc(C(F)(F)F)n2)cc1)C1CCCO1` (stereo not shown) [Compound 1.97, N-[2-[4-[5-(trifluoromethyl)-1,2,4-oxadiazol-3-yl]phenyl]ethyl] tetrahydrofuran-2-carboxamide], the pest or weed control at 200 ppm [1] is reported as ≥ 80%, the pest or weed control at 200 ppm [2] is reported as ≥ 80% and the pest or weed control at 200 ppm (Phakopsora pachyrhizi) is reported as ≥ 80%. For the same compound, the inhibition of growth at 20 ppm [3] was ≥ 80% and the melting point was 68.7 to 70.5 °C.

With `O=C(NCc1ccc(-c2noc(C(F)(F)F)n2)cc1)C1CCCO1` (stereo not shown) [Compound 1.5, N-[[4-[5-(trifluoromethyl)-1,2,4-oxadiazol-3-yl]phenyl]methyl] tetrahydrofuran-2-carboxamide] the pest or weed control at 200 ppm [1] was ≥ 80%, the pest or weed control at 200 ppm [2] was ≥ 80% and the pest or weed control at 200 ppm (Phakopsora pachyrhizi) was ≥ 80%. The inhibition of growth at 20 ppm [3] was ≥ 80%, the pest or weed control at 100 ppm (Uromyces viciae-Fabael) was ≥ 80% and the melting point was 76 to 83 °C.

With `O=C(NCc1ccc(-c2noc(C(F)(F)F)n2)c(F)c1)C1CC1` [Compound 1.57, N-[[3-fluoro-4-[5-(trifluoromethyl)-1,2,4-oxadiazol-3-yl]phenyl]methyl] cyclopropanecarboxamide] the pest or weed control at 200 ppm [1] was ≥ 80%, the pest or weed control at 200 ppm [2] was ≥ 80% and the pest or weed control at 200 ppm (Phakopsora pachyrhizi) was ≥ 80%. The inhibition of growth at 20 ppm [3] was ≥ 80% and the melting point was 139 to 140 °C.

With `O=C(NCCc1ccc(-c2noc(C(F)(F)F)n2)cc1)C1CC1` [Compound 1.96, N-[2-[4-[5-(trifluoromethyl)-1,2,4-oxadiazol-3-yl]phenyl]ethyl] cyclopropanecarboxamide] the pest or weed control at 200 ppm [1] was ≥ 80%, the pest or weed control at 200 ppm [2] was ≥ 80% and the pest or weed control at 200 ppm (Phakopsora pachyrhizi) was ≥ 80%. For the same compound, the inhibition of growth at 20 ppm [3] was ≥ 80% and the melting point was 150 to 151.1 °C.

For `O=C(NCc1ccc(-c2noc(C(F)(F)F)n2)c(F)c1)C1CCCO1` (stereo not shown) [Compound 1.59, N-[[3-fluoro-4-[5-(trifluoromethyl)-1,2,4-oxadiazol-3-yl]phenyl]methyl] tetrahydrofuran-2-carboxamide], the pest or weed control at 200 ppm [1] was ≥ 80%, the pest or weed control at 200 ppm [2] was ≥ 80% and the pest or weed control at 200 ppm (Phakopsora pachyrhizi) was ≥ 80%. The inhibition of growth at 20 ppm [3] was ≥ 80% and the melting point was 56 to 58 °C.

In the case of `O=C(NCc1ccc(-c2noc(C(F)(F)F)n2)cc1)C1(F)CC1` [Compound 1.2, 1-fluoro-N-[[4-[5-(trifluoromethyl)-1,2,4-oxadiazol-3-yl]phenyl]methyl] cyclopropanecarboxamide], the pest or weed control at 200 ppm [1] is reported as ≥ 80%, the pest or weed control at 200 ppm [2] is reported as ≥ 80% and the pest or weed control at 200 ppm (Phakopsora pachyrhizi) is reported as ≥ 80%. For the same compound, the inhibition of growth at 20 ppm [3] was ≥ 80%, the pest or weed control at 100 ppm (Uromyces viciae-Fabael) was ≥ 80% and the melting point was 101 to 108 °C.
